{"source": "paper PMC11823630", "about": "“In vitro potentiation of tetracyclines in Pseudomonas aeruginosa by RW01, a new cyclic peptide” (Antimicrobial Agents and Chemotherapy, 2024)"}
{"test_system": "PAO1 mutant MIN16_4, nalC(T50P), pilM(Q62X)", "assay": "MIC, Sensititre custom plate", "assay_type": "cell-based", "conditions": "Pseudomonas aeruginosa, PAO1, read-out: MIC, Sensititre", "method": "(§1) Selection of resistant mutants was performed for minocycline with and without RW01 in three independent replicates for wild-type P. aeruginosa reference strain PAO1. Tubes containing Mueller-Hinton broth (MHB) were inoculated and incubated for 24 h at 37°C. Afterward, 1/100 dilution of each tube was incubated at 37°C in MHB to late-exponential growth phase, measured by spectrophotometry at OD600. […] A control plate without antibiotic was included as inoculum control. After overnight incubation, colony counting of each treatment was performed to analyze the generation of resistant population. The mutant prevention concentration (MPC) was defined as the lowest concentration of antibiotic yielding no growth of resistant mutants. Selected mutants were checked for susceptibility profiles by using a Sensititre custom plate (Thermo Fisher Scientific, Massachusetts, USA) for Gram-negative bacteria, following the manufacturer’s instructions.", "units": {"MIC": "µg/mL"}}
{"smiles": "C[C@@H](O)[C@H]1C(=O)N2C(C(=O)O)=C(S[C@@H]3CN[C@H](C(=O)N(C)C)C3)[C@H](C)[C@H]12", "note": "[Meropenem, meropenem]", "MIC": 2}
{"test_system": "PAO1 mutant MIN8_1, nalD(R3C), pilM(Q62X)", "assay": "MIC, Sensititre custom plate", "assay_type": "cell-based", "conditions": "Pseudomonas aeruginosa, PAO1, read-out: MIC, Sensititre", "method": "as §1", "units": {"MIC": "µg/mL"}}
{"smiles": "C[C@@H](O)[C@H]1C(=O)N2C(C(=O)O)=C(S[C@@H]3CN[C@H](C(=O)N(C)C)C3)[C@H](C)[C@H]12", "note": "[Meropenem, meropenem]", "MIC": 2}
{"test_system": "PAO1 mutant MIN8_4, pilZ(nt18InsT)", "assay": "MIC, Sensititre custom plate", "assay_type": "cell-based", "conditions": "Pseudomonas aeruginosa, PAO1, read-out: MIC, Sensititre", "method": "as §1", "units": {"MIC": "µg/mL"}}
{"smiles": "C[C@@H](O)[C@H]1C(=O)N2C(C(=O)O)=C(S[C@@H]3CN[C@H](C(=O)N(C)C)C3)[C@H](C)[C@H]12", "note": "[Meropenem, meropenem]", "MIC": 2}
{"test_system": "PAO1 mutant MIN8_2, pilZ(nt18InsT)", "assay": "MIC, Sensititre custom plate", "assay_type": "cell-based", "conditions": "Pseudomonas aeruginosa, PAO1, read-out: MIC, Sensititre", "method": "as §1", "units": {"MIC": "µg/mL"}}
{"smiles": "C[C@@H](O)[C@H]1C(=O)N2C(C(=O)O)=C(S[C@@H]3CN[C@H](C(=O)N(C)C)C3)[C@H](C)[C@H]12", "note": "[Meropenem, meropenem]", "MIC": 2}
{"test_system": "P. aeruginosa PAOΔoprM", "assay": "MIC, CLSI broth microdilution in BD Phoenix AST Broth", "assay_type": "cell-based, Pseudomonas aeruginosa", "conditions": "Pseudomonas aeruginosa", "method": "(§2) MIC for RW01 was also tested.\n(§3) FIC of RW01 (FICRW01)=MIC of RW01 in combination/MIC of RW01 alone,FIC of antibiotic (FICATB)=MIC of ATB in combination/MIC of ATB alone,FICI=FICRW01 +FICATB.\n(§4) FICI was interpreted as follows: synergistic effect if FICI is ≤0.5; additive effect if 0.5 < FICI ≤ 1.0; indifferent effect if 1.0 < FICI ≤ 2.0; and finally, antagonistic effect if FICI is >2.0. The average FICI considering the antibiotic MIC (no growth in any of the replicates) at different concentrations of RW01 was calculated ([28]).", "units": {"MIC": "µg/mL"}}
{"smiles": "C[C@@H](O)[C@H]1C(=O)N2C(C(=O)O)=C(S[C@@H]3CN[C@H](C(=O)N(C)C)C3)[C@H](C)[C@H]12", "note": "[Meropenem, meropenem]", "MIC": 0.125}
{"test_system": "P. aeruginosa PAO1", "assay": "MIC, CLSI broth microdilution in BD Phoenix AST Broth", "assay_type": "cell-based, Pseudomonas aeruginosa", "conditions": "Pseudomonas aeruginosa, PAO1, strain PAO1; agent alone; 37°C, 18–22 h; three biological replicates; read-out: MIC", "method": "as §2, §3, §4", "units": {"MIC": "µg/mL"}}
{"smiles": "C[C@@H](O)[C@H]1C(=O)N2C(C(=O)O)=C(S[C@@H]3CN[C@H](C(=O)N(C)C)C3)[C@H](C)[C@H]12", "note": "[Meropenem, meropenem]", "MIC": 0.5}
{"test_system": "P. aeruginosa 41B", "assay": "MIC, CLSI broth microdilution in BD Phoenix AST Broth", "assay_type": "cell-based, Pseudomonas aeruginosa", "conditions": "Pseudomonas aeruginosa; strain 41B; agent alone; 37°C, 18–22 h; three biological replicates", "method": "as §2, §3, §4", "units": {"MIC": "µg/mL"}}
{"smiles": "C[C@@H](O)[C@H]1C(=O)N2C(C(=O)O)=C(S[C@@H]3CN[C@H](C(=O)N(C)C)C3)[C@H](C)[C@H]12", "note": "[Meropenem, meropenem]", "MIC": 16}
{"test_system": "P. aeruginosa PAOΔmexZ", "assay": "MIC, CLSI broth microdilution in BD Phoenix AST Broth", "assay_type": "cell-based, Pseudomonas aeruginosa", "conditions": "Pseudomonas aeruginosa, strain PAOΔmexZ; agent alone; 37°C, 18–22 h; three biological replicates", "method": "as §2, §3, §4", "units": {"MIC": "µg/mL"}}
{"smiles": "C[C@@H](O)[C@H]1C(=O)N2C(C(=O)O)=C(S[C@@H]3CN[C@H](C(=O)N(C)C)C3)[C@H](C)[C@H]12", "note": "[Meropenem, meropenem]", "MIC": 0.5}
{"test_system": "P. aeruginosa 41A", "assay": "MIC, CLSI broth microdilution in BD Phoenix AST Broth", "assay_type": "cell-based, Pseudomonas aeruginosa", "conditions": "Pseudomonas aeruginosa; strain 41A; agent alone; 37°C, 18–22 h; three biological replicates", "method": "as §2, §3, §4", "units": {"MIC": "µg/mL"}}
{"smiles": "C[C@@H](O)[C@H]1C(=O)N2C(C(=O)O)=C(S[C@@H]3CN[C@H](C(=O)N(C)C)C3)[C@H](C)[C@H]12", "note": "[Meropenem, meropenem]", "MIC": 4}
{"test_system": "P. aeruginosa PAOUW", "assay": "MIC, CLSI broth microdilution in BD Phoenix AST Broth", "assay_type": "cell-based, Pseudomonas aeruginosa", "conditions": "Pseudomonas aeruginosa, strain PAOUW; agent alone; 37°C, 18–22 h; three biological replicates; read-out: MIC", "method": "as §2, §3, §4", "units": {"MIC": "µg/mL"}}
{"smiles": "C[C@@H](O)[C@H]1C(=O)N2C(C(=O)O)=C(S[C@@H]3CN[C@H](C(=O)N(C)C)C3)[C@H](C)[C@H]12", "note": "[Meropenem, meropenem]", "MIC": 1}
{"test_system": "P. aeruginosa PAOΔmexR", "assay": "MIC, CLSI broth microdilution in BD Phoenix AST Broth", "assay_type": "cell-based, Pseudomonas aeruginosa", "conditions": "Pseudomonas aeruginosa", "method": "as §2, §3, §4", "units": {"MIC": "µg/mL"}}
{"smiles": "C[C@@H](O)[C@H]1C(=O)N2C(C(=O)O)=C(S[C@@H]3CN[C@H](C(=O)N(C)C)C3)[C@H](C)[C@H]12", "note": "[Meropenem, meropenem]", "MIC": 1}
{"test_system": "P. aeruginosa PAOUW∆oprF", "assay": "MIC, CLSI broth microdilution in BD Phoenix AST Broth", "assay_type": "cell-based, Pseudomonas aeruginosa", "conditions": "Pseudomonas aeruginosa, strain PAOUWΔoprF; agent alone; 37°C, 18–22 h; three biological replicates", "method": "as §2, §3, §4", "units": {"MIC": "µg/mL"}}
{"smiles": "C[C@@H](O)[C@H]1C(=O)N2C(C(=O)O)=C(S[C@@H]3CN[C@H](C(=O)N(C)C)C3)[C@H](C)[C@H]12", "note": "[Meropenem, meropenem]", "MIC": 2}
{"test_system": "P. aeruginosa 125A", "assay": "MIC, CLSI broth microdilution in BD Phoenix AST Broth", "assay_type": "cell-based, Pseudomonas aeruginosa", "conditions": "Pseudomonas aeruginosa; strain 125A; agent alone; 37°C, 18–22 h; three biological replicates", "method": "as §2, §3, §4", "units": {"MIC": "µg/mL"}}
{"smiles": "C[C@@H](O)[C@H]1C(=O)N2C(C(=O)O)=C(S[C@@H]3CN[C@H](C(=O)N(C)C)C3)[C@H](C)[C@H]12", "note": "[Meropenem, meropenem]", "MIC": 0.5}
{"test_system": "P. aeruginosa 125B", "assay": "MIC, CLSI broth microdilution in BD Phoenix AST Broth", "assay_type": "cell-based, Pseudomonas aeruginosa", "conditions": "Pseudomonas aeruginosa; strain 125B; agent alone; 37°C, 18–22 h; three biological replicates", "method": "as §2, §3, §4", "units": {"MIC": "µg/mL"}}
{"smiles": "C[C@@H](O)[C@H]1C(=O)N2C(C(=O)O)=C(S[C@@H]3CN[C@H](C(=O)N(C)C)C3)[C@H](C)[C@H]12", "note": "[Meropenem, meropenem]", "MIC": 0.5}
{"test_system": "PAO1 mutant MIN1_RW01_4, pmrB(F124L)", "assay": "microbe, parasite or virus in culture", "assay_type": "cell-based", "conditions": "Pseudomonas aeruginosa, PAO1, read-out: MIC, Sensititre", "method": "as §1", "units": {"MIC": "µg/mL"}}
{"smiles": "C[C@@H](O)[C@H]1C(=O)N2C(C(=O)O)=C(S[C@@H]3CN[C@H](C(=O)N(C)C)C3)[C@H](C)[C@H]12", "note": "[Meropenem, meropenem]", "MIC": 1}
{"test_system": "PAO1 mutant MIN4_RW01_2, pmrB(F124S)", "assay": "microbe, parasite or virus in culture", "assay_type": "cell-based", "conditions": "Pseudomonas aeruginosa, PAO1, read-out: MIC, Sensititre", "method": "as §1", "units": {"MIC": "µg/mL"}}
{"smiles": "C[C@@H](O)[C@H]1C(=O)N2C(C(=O)O)=C(S[C@@H]3CN[C@H](C(=O)N(C)C)C3)[C@H](C)[C@H]12", "note": "[Meropenem, meropenem]", "MIC": "≤ 0.5"}
